Columns and labels:
Homo sapiens [1] = assay: Drug metabolism in human assessed as retention time of parent compound at 40 mg, po up to 20 hrs by mass defect filter chromatogram analysis; format: ADME, organism-based; conditions: in vivo
OATP2B1 = molecular target: T1, OATP2B1 (Homo sapiens, UniProt O94956); assay: Drug uptake assessed as OATP2B1 (unknown origin)-mediated drug transport expressed in HEK293 cells by LC-MS/MS analysis relative to control; format: ADME, cell-based; conditions: HEK293 cells expressing OATP2B1
T1 sequence (O94956 whole entry): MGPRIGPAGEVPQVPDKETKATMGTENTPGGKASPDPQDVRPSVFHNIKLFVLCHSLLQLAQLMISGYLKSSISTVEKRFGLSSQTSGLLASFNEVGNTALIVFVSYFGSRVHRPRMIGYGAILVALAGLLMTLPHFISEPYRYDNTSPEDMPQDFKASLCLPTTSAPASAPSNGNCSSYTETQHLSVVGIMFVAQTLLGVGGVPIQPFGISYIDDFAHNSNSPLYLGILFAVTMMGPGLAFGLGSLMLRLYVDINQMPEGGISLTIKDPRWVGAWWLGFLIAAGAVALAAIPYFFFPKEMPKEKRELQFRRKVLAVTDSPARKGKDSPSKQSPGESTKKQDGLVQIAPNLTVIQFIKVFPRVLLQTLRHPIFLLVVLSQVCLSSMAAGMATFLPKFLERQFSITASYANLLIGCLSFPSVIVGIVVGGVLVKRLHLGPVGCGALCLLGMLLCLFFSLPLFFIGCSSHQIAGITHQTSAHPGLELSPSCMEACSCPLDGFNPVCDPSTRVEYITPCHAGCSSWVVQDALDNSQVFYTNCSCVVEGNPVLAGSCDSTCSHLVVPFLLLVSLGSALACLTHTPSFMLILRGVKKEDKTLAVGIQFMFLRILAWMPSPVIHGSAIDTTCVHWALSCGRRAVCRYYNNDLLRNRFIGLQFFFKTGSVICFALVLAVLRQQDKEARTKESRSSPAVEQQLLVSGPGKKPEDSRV

[2] = molecular target: ATP-dependent translocase ABCB1 (Homo sapiens, UniProt P08183); assay: Inhibition of human MDR1-mediated N-methyl quinine formation using inside-out membrane vesicles by LC-MS/MS analysis; format: ADME
ATP-dependent translocase ABCB1, sequence (P08183 whole entry): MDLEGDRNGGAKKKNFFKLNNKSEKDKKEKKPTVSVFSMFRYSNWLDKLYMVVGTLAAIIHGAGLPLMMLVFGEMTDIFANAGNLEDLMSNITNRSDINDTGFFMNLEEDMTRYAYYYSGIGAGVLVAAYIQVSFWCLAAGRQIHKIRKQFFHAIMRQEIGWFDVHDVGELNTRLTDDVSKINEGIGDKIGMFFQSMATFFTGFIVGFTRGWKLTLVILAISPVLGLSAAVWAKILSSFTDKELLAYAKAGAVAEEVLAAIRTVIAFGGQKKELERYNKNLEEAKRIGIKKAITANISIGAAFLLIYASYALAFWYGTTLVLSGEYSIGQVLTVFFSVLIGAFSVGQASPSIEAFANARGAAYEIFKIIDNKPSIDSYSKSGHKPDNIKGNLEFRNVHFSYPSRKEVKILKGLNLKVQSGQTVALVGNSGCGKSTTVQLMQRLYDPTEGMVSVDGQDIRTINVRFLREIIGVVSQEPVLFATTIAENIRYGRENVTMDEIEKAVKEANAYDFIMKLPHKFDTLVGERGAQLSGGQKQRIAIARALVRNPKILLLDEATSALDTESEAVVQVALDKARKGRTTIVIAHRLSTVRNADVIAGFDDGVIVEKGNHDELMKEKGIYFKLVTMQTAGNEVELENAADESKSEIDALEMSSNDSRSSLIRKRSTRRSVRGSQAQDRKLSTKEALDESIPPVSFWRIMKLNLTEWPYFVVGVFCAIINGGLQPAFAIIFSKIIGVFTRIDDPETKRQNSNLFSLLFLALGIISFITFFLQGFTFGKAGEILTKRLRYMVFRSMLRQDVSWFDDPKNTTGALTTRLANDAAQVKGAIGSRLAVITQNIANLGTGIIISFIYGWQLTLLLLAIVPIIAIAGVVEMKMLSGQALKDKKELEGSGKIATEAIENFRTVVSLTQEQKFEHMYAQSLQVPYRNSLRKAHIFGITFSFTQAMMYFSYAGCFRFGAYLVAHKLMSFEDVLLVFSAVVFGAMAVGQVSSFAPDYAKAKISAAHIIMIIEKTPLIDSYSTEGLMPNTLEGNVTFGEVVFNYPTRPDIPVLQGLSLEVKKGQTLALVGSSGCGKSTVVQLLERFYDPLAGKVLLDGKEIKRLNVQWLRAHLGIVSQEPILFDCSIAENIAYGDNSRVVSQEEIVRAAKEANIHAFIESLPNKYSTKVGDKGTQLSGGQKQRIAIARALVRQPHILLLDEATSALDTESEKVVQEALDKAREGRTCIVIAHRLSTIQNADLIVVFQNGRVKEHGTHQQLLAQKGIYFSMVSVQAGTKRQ

[3] = Cmax in human at 60 mg, po; format: ADME, organism-based; set-up: dose 60 mg, route oral; conditions: in vivo
[4] = molecular target: T2, Solute carrier organic anion transporter family member 2B1 (Homo sapiens, UniProt O94956); assay: Ratio of Vmax to Km for drug uptake assessed as OATP2B1 (unknown origin)-mediated drug transport expressed in HEK293 cells by LC-MS/MS analysis; format: ADME, cell-based
T2 sequence (O94956 whole entry): T1 sequence (O94956 whole entry)

[5] = molecular target: ATP-binding cassette sub-family C member 3 (Homo sapiens, UniProt O15438); assay: Drug uptake assessed as human MRP3-mediated drug transport using inside-out membrane vesicles by measuring +ATP/-ATP ratio by LC-MS/MS analysis; format: ADME
ATP-binding cassette sub-family C member 3, sequence (O15438 whole entry): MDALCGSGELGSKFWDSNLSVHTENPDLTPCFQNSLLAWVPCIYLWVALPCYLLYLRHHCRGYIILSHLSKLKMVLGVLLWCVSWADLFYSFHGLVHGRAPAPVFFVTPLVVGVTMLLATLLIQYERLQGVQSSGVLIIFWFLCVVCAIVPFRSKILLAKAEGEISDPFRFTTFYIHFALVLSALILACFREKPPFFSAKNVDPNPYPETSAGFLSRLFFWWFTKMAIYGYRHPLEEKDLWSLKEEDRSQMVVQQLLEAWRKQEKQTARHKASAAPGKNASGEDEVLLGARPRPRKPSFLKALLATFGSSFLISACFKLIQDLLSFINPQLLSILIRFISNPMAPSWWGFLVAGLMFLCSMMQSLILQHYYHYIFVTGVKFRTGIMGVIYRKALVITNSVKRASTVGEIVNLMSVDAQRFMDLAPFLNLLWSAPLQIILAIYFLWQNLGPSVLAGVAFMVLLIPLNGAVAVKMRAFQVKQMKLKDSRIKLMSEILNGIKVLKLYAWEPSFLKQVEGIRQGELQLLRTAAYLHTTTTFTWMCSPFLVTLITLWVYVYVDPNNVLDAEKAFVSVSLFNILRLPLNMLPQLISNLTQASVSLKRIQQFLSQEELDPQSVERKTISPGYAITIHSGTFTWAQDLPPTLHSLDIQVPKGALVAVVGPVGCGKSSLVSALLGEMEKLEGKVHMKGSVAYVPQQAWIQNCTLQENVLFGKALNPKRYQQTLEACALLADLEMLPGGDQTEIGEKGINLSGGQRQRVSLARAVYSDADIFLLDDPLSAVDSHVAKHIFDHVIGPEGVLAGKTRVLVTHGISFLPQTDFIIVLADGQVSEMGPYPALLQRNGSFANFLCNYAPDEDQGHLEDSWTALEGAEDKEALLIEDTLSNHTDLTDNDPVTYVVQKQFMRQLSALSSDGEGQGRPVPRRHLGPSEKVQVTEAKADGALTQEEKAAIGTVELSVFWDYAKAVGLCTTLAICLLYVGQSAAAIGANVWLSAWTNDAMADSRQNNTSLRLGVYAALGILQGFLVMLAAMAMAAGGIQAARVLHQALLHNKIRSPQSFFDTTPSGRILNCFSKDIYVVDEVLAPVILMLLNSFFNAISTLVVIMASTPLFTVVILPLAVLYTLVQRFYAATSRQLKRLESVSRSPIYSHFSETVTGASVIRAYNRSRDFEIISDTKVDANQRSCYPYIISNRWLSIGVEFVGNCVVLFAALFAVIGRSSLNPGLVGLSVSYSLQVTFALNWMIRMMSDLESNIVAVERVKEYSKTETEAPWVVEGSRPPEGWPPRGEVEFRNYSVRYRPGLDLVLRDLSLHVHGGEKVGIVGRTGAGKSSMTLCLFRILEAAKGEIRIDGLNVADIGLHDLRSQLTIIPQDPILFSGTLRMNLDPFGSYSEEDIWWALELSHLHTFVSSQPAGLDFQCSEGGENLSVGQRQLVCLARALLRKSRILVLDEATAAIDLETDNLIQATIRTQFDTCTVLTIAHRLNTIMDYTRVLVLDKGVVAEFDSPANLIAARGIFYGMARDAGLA

[6] = molecular target: T3, UDP-glucuronosyltransferase 1A1 (Homo sapiens, UniProt P22309); assay: Drug metabolism assessed as human recombinant UGT1A1-mediated formation of scutellarein-6,7-diglucuronide after 25 mins by HPLC/UV analysis; format: ADME
T3 sequence (P22309 whole entry): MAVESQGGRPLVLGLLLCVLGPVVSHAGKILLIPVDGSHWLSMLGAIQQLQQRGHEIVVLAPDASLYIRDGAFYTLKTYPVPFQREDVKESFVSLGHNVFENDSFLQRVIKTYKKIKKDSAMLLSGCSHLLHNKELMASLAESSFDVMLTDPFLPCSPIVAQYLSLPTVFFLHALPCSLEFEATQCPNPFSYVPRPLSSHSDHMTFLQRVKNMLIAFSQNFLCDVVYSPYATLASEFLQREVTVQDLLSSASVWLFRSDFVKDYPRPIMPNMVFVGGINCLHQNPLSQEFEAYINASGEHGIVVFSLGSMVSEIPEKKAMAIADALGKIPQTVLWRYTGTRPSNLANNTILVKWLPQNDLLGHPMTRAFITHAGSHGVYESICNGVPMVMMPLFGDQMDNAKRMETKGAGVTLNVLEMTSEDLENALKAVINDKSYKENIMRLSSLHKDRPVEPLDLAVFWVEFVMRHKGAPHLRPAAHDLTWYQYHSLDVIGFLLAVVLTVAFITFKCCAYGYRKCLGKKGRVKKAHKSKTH

[7] = molecular target: T4, UDP-glucuronosyltransferase 1A10 (Homo sapiens, UniProt Q9HAW8); assay: Ratio of Vmax to Km for drug metabolism assessed as human recombinant UGT1A10-mediated formation of scutellarein-6,7-diglucuronide after 25 mins by HPLC/UV analysis; format: ADME; conditions: recombinant enzyme
T4 sequence (Q9HAW8 whole entry): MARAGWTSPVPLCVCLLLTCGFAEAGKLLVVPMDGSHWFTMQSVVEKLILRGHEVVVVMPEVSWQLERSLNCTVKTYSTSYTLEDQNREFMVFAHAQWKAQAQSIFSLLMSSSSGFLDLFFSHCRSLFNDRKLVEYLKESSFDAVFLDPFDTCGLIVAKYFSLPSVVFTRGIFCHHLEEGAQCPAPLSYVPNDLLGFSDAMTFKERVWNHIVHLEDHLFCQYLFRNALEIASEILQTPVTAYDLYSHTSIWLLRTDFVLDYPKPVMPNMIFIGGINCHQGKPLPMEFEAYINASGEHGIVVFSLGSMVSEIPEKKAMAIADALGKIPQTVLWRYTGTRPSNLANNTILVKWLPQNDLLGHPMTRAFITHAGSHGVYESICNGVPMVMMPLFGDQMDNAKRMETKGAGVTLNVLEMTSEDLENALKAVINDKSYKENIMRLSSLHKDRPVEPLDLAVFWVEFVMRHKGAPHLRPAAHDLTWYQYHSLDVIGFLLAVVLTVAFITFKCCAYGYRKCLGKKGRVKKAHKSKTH

Homo sapiens [8] = assay: Drug level in human assessed as retention time treated with 40 mg, po of scutellarin measured up to 20 hrs by mass defect filter chromatogram analysis; format: ADME, organism-based
[9] = molecular target: T5, UDP-glucuronosyltransferase 1A8 (Homo sapiens, UniProt Q9HAW9); assay: Ratio of Vmax to Km for drug metabolism assessed as human recombinant UGT1A8-mediated formation of scutellarein-6,7-diglucuronide after 25 mins by HPLC/UV analysis; format: ADME; conditions: recombinant enzyme
T5 sequence (Q9HAW9 whole entry): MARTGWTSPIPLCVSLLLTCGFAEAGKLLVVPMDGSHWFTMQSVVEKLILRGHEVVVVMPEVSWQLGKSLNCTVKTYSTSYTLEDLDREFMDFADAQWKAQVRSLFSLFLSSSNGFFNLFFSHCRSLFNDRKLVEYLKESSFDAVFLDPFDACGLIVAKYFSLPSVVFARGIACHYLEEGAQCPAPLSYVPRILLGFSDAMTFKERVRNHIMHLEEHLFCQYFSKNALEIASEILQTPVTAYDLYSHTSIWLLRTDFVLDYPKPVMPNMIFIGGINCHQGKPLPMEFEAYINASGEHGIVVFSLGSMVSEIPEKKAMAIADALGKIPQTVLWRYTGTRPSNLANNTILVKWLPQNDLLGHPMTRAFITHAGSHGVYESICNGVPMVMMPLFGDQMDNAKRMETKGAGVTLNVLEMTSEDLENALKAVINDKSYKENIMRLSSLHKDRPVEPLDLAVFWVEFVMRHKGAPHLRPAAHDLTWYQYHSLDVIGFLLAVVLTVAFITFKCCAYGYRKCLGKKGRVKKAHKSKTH

SMILES | Retention_time (Homo sapiens [1]) [min] | uptake ratio (OATP2B1) | inhibition (INH) [2] | Cmax [3] [nM] | Vmax/Km [4] [µL/min/mg] | Ratio [5] | Ki [6] [µM] | Vmax/Km [7] [µL/min/mg] | Retention_time (Homo sapiens [8]) [min] | Vmax/Km [9] [µL/min/mg]
O=C(O)[C@H]1O[C@@H](Oc2cc3oc(-c4ccc(O)cc4)cc(=O)c3c(O)c2O)[C@H](O)[C@@H](O)[C@@H]1O [SCUTELLARIN] | 7.93 | 65 | Active | < 4 | 11.1 | 1.61 | 96.6 | – | – | –
O=C(O)[C@H]1O[C@@H](Oc2c(O)cc3oc(-c4ccc(O)cc4)cc(=O)c3c2O)[C@H](O)[C@@H](O)[C@@H]1O | – | 20.4 | Active | – | – | 1.61 | – | 2.84 | 9.19 | 7.96

Reference: ChEMBL document CHEMBL3526031, “Mechanistic studies on the absorption and disposition of scutellarin in humans: selective OATP2B1-mediated hepatic uptake is a likely key determinant for its unique pharmacokinetic characteristics” (Drug Metab Dispos, 2012)
